Assay results reported in US6894063B2, “Substituted urea neuropeptide Y Y5 Receptor antagonists” (Schering Corporation, priority 2000, dated 2005).

System: D-Trp34-NPY stimulated food intake
Assay: Screening for Y5 antagonist activity in vivo: D-Trp34-NPY stimulated food intake in rats
Design: species or system Long-Evans or Sprague-Dawley rats
Conditions: rat, oral doses 0.1, 0.3, 1 and 3 mg/kg one hour before icv D-Trp34-NPY; food consumption monitored at 60, 120 and 240 min
Procedure: Method for Screening Compound 14 of Example 14 for Y5 Antagonist Activity In Vivo
Adult male Long-Evans or Sprague-Dawley rats (200-250 g, Charles River, Mass.) were maintained in individual cages at 22° C. on a 12 hr light/12 hr dark cycle with lights on at 0400. Rats had free access to food (Teklad Lab Rodent Chow, Bartonville, Ill.) and water. All studies were conducted in an AAALAC accredited facility following protocols approved by the Animal Care and Use Committee of the Schering-Plough Research Institute. The procedures were performed in accordance with the principles and guidelines established by the NIH for the care and use of laboratory animals.
Rats were anesthetized by intramuscular injection of a mixture of ketamine and xylazine (100 and 10 mg/kg, respectively). A 22 gauge stainless steel cannula was stereotaxically implanted into the lateral ventricle using the following coordinates: 1 mm posterior to bregma, 1.5 mm lateral to midline, 3.6 mm ventral to dura. After a three week recovery period, all animals were tested for correct cannula placement by intracerebroventricular (icv) infusion of human NPY ([…]). […] Food consumption was monitored at 60, 120 and 240 min after icv infusion of peptides. Differences in food intake between groups were determined by analysis of variance followed by Dunnett's multiple comparison test.

SMILES: CN(C(=O)Nc1ccc(-c2cc(F)cc(F)c2)cc1)C1CCN(c2nccs2)CC1 [Example 14]
- ID50, inhibition of D-Trp34-NPY stimulated food intake: 0.5 mg/kg
